According to patent US12595251B2, “Amidines and amidine analogs for the treatment of bacterial infections and potentiation antibiotics” (GEORGIA STATE UNIVERSITY RESEARCH FOUNDATION, INC., priority 2018, dated 2026):
Where a name gives a salt, the structure may show the parent alone.

Experiments:
[1] = tested on: B. subtilis; experiment: MIC of compounds against B. subtilis (OD600, 48 h); assay type: cell-based; conditions: Bacillus subtilis; for MIC: MIC = 90% growth inhibition, compound alone; for inhibition at 25 µM: read-out: Growth inhibition of B. subtilis at 25 μM, compound alone at 25 μM; for inhibition at 12.5 µM: compound alone at 12.5 μM, NA=no activity, read-out: Growth inhibition of B. subtilis at 12.5 μM; for inhibition at 2 µM: read-out: Growth inhibition of B. subtilis at 2 μM, compound alone at 2 μM; for inhibition at 12 µM: compound alone at 12 μM, read-out: Growth inhibition of B. subtilis at 12 μM; for inhibition at 6 µM: read-out: Growth inhibition of B. subtilis at 6 μM, compound alone at 6 μM, NA=no activity; for inhibition at 1 µM: read-out: Growth inhibition of B. subtilis at 1 μM, compound alone at 1 μM; for inhibition at 3 µM: read-out: Growth inhibition of B. subtilis at 3 μM, compound alone at 3 μM, NA=no activity
Method: Bacteria were then cultured with varying concentration of the compounds shown below for 48 hours, and then bacterial density was measured based on OD600. The procedure to determine the MIC for each compound against B. subtilis was the same except that the bacteria was cultured in nutrient broth. The MIC of each compound against B. subtilis is shown in Table 2 (NA=no activity, --=not tested).

[2] = tested on: wild-type E. coli; experiment: Sensitization of wild-type E. coli toward antibiotics (MIC of antibiotic with/without sensitizer); assay type: cell-based, Escherichia coli; conditions: compound at 5 μg/ml; strain and antibiotic not stated in Table 8
Method: Bacteria were cultured with the antibiotic at various concentrations in the presence or absence of bacterial sensitizer for 24 hours at 37° C. Bacterial growth density was determined by measuring OD600 (absorbance measured at a wavelength of 600 nm). […]
The formula for calculating FIC is shown below: […]

[3] = tested on: E. coli; experiment: MIC of compounds against E. coli (OD600, 48 h); assay type: cell-based; conditions: Escherichia coli; for inhibition at 25 µM: read-out: Growth inhibition of E. coli at 25 μM, compound alone at 25 μM, NA=no activity; for inhibition at 12 µM: compound alone at 12 μM, read-out: Growth inhibition of E. coli at 12 μM; for inhibition at 12 µM / MIC: NA=no activity; for inhibition at 50 µM: read-out: Growth inhibition of E. coli at 50 μM, compound alone at 50 μM, NA=no activity; for MIC: MIC = 90% growth inhibition, compound alone

| Structure (SMILES) | inhibition at 25 µM [3] [%] | inhibition at 12 µM [3] [%] | inhibition at 12 µM [1] [%] | inhibition at 6 µM [1] [%] | other results |
| --- | --- | --- | --- | --- | --- |
| Cc1cc(COc2ccc(C3=CCCCN3)cc2)cc(COc2ccc(C3=NCCCN3)cc2)c1 |  |  |  |  | MIC [1]: 50 µM; inhibition at 25 µM [1]: 50% |
| N=C(N)c1ccc(OCc2cccc(COc3ccc(C(=N)N)cc3F)c2F)c(F)c1 [Compound A-1, 4,4′-(((2-Fluoro-1,3-phenylene)bis(methylene))bis(oxy))bis(3-fluorobenzimidamide) Dihydrochloride] |  |  |  |  | Sensitization fold [2]: 8 |
| CC(C)(C)c1cc(COc2ccc(C(=N)N)cc2F)cc(COc2ccc(C(=N)N)cc2F)c1 [Compound E-15, 1,3-bis {[4-amidino-2-fluoro]-phenoxymethyl]}-5-(tert-butyl)benzene dihydrochloride] |  |  |  |  | Sensitization fold [2]: 256 |
| Cc1cc(COc2ccc(C(=N)N)cc2F)cc(COc2ccc(C(=N)N)cc2F)c1 [Compound E-18, 1,3-Bis {[4-amidino-2-fluoro)-phenoxymethyl]}-5-methyl-benzene dihydrochloride] |  |  |  |  | Sensitization fold [2]: 32 |
| N=C(N)c1ccc2nc(-c3ccc(OCC(F)(F)C(F)(F)COc4ccc(-c5nc6ccc(C(=N)N)cc6[nH]5)cc4)cc3)[nH]c2c1 [drawing 753] | 50 |  |  |  | inhibition at 12.5 µM [1]: 10%; inhibition at 25 µM [1]: 20% |
| Cn1c(CCCCc2nc3ccc(C(=N)N)cc3n2C)nc2ccc(C(=N)N)cc21 [drawing 754] |  |  |  |  | inhibition at 25 µM [1]: 20% |
| N=C(N)c1ccc(Oc2ccc(C(=N)N)cc2)cc1 [drawing 755] |  |  |  |  | inhibition at 12.5 µM [1]: 60%; inhibition at 25 µM [1]: 70% |
| N=C(N)c1ccc(OCc2ccc(-c3ccc(C(=N)N)cc3)cc2)cc1 [drawing 756] | 50 |  |  |  | MIC [1]: 12.5 µM; inhibition at 2 µM [1]: 30% |
| N=C(N)c1ccc(OCc2cccc(COc3ccc(C(=N)N)cc3F)c2F)c(F)c1 [drawing 757] | 70 | 40 |  |  | inhibition at 50 µM [3]: 90%; MIC [1]: 12.5 µM; inhibition at 2 µM [1]: 10% |
| N=C(N)c1ccc(OCc2cccc(COc3ccc(C(=N)N)cc3)c2F)cc1 [drawing 758] |  | 80 | 60 | 50 | inhibition at 6 µM ([3]; read-out: Growth inhibition of E. coli at 6 μM, compound alone at 6 μM): 60% |
| Cn1c(CCc2nc3cc(C(=N)N)ccc3n2C)nc2cc(C(=N)N)ccc21 [drawing 759] |  |  |  |  | inhibition at 50 µM [3]: 10%; inhibition at 12.5 µM [1]: 20%; inhibition at 25 µM [1]: 70% |
| Cc1cc(COc2ccc(C(=N)N)cc2)cc(COc2ccc(C(=N)N)cc2)c1 [drawing 761] | 25 | 15 | 20 |  | inhibition at 25 µM [1]: 50% |
| c1cc(COc2ccc(C3=NCCN3)cc2)cc(COc2ccc(C3=NCCN3)cc2)c1 [drawing 762] | 50 | 25 |  |  |  |
| Fc1c(COc2ccc(C3=NCCN3)cc2)cccc1COc1ccc(C2=NCCN2)cc1 [drawing 763] | 20 |  |  |  |  |
| N=C(N)c1ccc(OCc2ccc(COc3ccc(C(=N)N)cc3)cc2)cc1 [drawing 766] | 20 | 10 | 70 | 60 |  |
| Cc1cc(COc2ccc(C(=N)NC(C)C)cc2)cc(COc2ccc(C(=N)NC(C)C)cc2)c1 [drawing 767] | 50 | 40 |  |  | MIC [1]: 6 µM; inhibition at 1 µM [1]: 60%; inhibition at 2 µM [1]: 70% |
| COc1cc(C(=N)N)ccc1OCc1cc(C)cc(COc2ccc(C(=N)N)cc2OC)c1 [drawing 768] | 50 | 25 |  |  | MIC [1]: 6 µM; inhibition at 1 µM [1]: 10%; inhibition at 2 µM [1]: 50% |
| COc1cc(C(=N)N)ccc1OCc1cccc(COc2ccc(C(=N)N)cc2OC)c1F [drawing 769] | 50 | 30 | 50 | 25 |  |
| CC(C)(C)c1cc(COc2ccc(C(=N)N)cc2)cc(COc2ccc(C(=N)N)cc2)c1 [drawing 770] | 90 | 40 |  |  | MIC [1]: 6 µM; inhibition at 1 µM [1]: 10%; inhibition at 2 µM [1]: 70% |
| Cn1c(-c2ccc(-c3ccc(C(=N)N)cc3)s2)nc2cc(-c3ccc(C(=N)N)cc3)ccc21 [drawing 771] | 15 |  |  | 50 | MIC [1]: 12 µM; inhibition at 2 µM [1]: 20% |
| N=C(N)c1ccc2[nH]c(-c3ccc(-c4ccc(-c5ccc(-c6ccc(-c7nc8cc(C(=N)N)ccc8[nH]7)cc6)s5)s4)cc3)nc2c1 [drawing 772] |  |  | 20 | 20 | inhibition at 50 µM [3]: 10% |
| N=C(N)c1ccc(OCc2cccc(COc3ccc(C(=N)N)cc3)c2)cc1 [drawing 773] | 50 | 35 | 70 | 60 | inhibition at 50 µM [3]: 60%; inhibition at 2 µM [1]: 30% |

| Structure (SMILES) | inhibition at 25 µM [3] [%] | inhibition at 12 µM [3] [%] | inhibition at 12 µM [1] [%] | inhibition at 6 µM [1] [%] | other results |
| --- | --- | --- | --- | --- | --- |
| N=C(N)c1ccc(OCCCCCCCCOc2ccc(C(=N)N)cc2)cc1 [drawing 774] |  |  |  |  | MIC [3]: 25 µM |
| Cc1cc(-c2nc3cc(C(=N)N)ccc3n2C)sc1-c1ccc(OCCCCOc2ccc(C(=N)N)cc2)cc1 [drawing 775] | 30 |  | 70 |  |  |
| N=C(N)c1ccc(OCc2cccc(COc3ccc(C(=N)N)cc3)n2)cc1 [drawing 776] |  |  |  |  | inhibition at 50 µM [3]: 50%; MIC [1]: 12.5 µM; inhibition at 2 µM [1]: 40% |
| N=C(N)c1ccc(OCOc2ccc(C(=N)N)cc2)cc1 [drawing 777] |  |  |  | 10 | inhibition at 12.5 µM [1]: 80% |
| N=C(N)c1ccc(OCCCCCCOc2ccc(C(=N)N)cc2)cc1 [drawing 778] | 70 | 40 |  | 40 | MIC [1]: 12 µM; inhibition at 2 µM [1]: 30% |
| Cc1cc(COc2ccc(C3=NCCN3)cc2)cc(COc2ccc(C3=NCCN3)cc2)c1 [drawing 779] | 25 | 10 | 25 | 20 |  |
| Cc1cc(COc2ccc(CN)cc2)cc(COc2ccc(CN)cc2)c1 [drawing 780] | 30 | 10 | 10 |  |  |
| N=C(N)c1ccc(OCc2cc(COc3ccc(C(=N)N)cc3)cc(COc3ccc(C(=N)N)cc3)c2)cc1 [drawing 781] | 60 | 40 |  | 80 | MIC [1]: 12 µM |
| Cc1cc(CCc2ccc(C(=N)N)cc2)cc(CCc2ccc(C(=N)N)cc2)c1 [drawing 782] | 20 | 10 | 80 | 30 |  |
| Cc1cc(OCc2ccc(C(=N)N)cc2)cc(OCc2ccc(C(=N)N)cc2)c1 [drawing 783] | 30 |  | 20 |  |  |
| CC(C)NC(=N)c1ccc(OCc2cccc(COc3ccc(C(=N)NC(C)C)cc3)c2F)cc1 [drawing 784] | 80 | 60 | 80 | 70 |  |
| CC(C)NC(=N)c1ccc(OCc2cccc(COc3ccc(C(=N)NC(C)C)cc3F)c2F)c(F)c1 [drawing 785] | 50 | 40 | 70 | 60 |  |
| CCCNC(=N)c1ccc(COc2cc(C)cc(OCc3ccc(C(=N)NCCC)cc3)c2)cc1 [drawing 786] |  |  |  |  | MIC [1]: 50 µM; inhibition at 12.5 µM [1]: 30%; inhibition at 25 µM [1]: 50% |
| COc1cc(C(=N)N)ccc1OCc1cc(COc2ccc(C(=N)N)cc2OC)cc(C(C)(C)C)c1 [drawing 788] |  |  |  | 40 | inhibition at 50 µM [3]: 80%; inhibition at 3 µM [1]: 30% |
| CC(C)(C)c1cc(COc2ccc(C(=N)N)cc2F)cc(COc2ccc(C(=N)N)cc2F)c1 [drawing 789] |  |  |  |  | MIC [3]: 50 µM; MIC [1]: 50 µM |
| Cc1cc(COc2cccc(C(=N)N)c2)cc(COc2cccc(C(=N)N)c2)c1 [drawing 790] |  |  |  |  | inhibition at 50 µM [3]: 80%; MIC [1]: 50 µM |
| Cc1cc(CSc2ccc(C(=N)N)cc2)cc(CSc2ccc(C(=N)N)cc2)c1 [drawing 791] |  | 15 |  | 40 | inhibition at 3 µM [1]: 10% |
| Cc1cc(CSc2ccc(C3=NCCN3)cc2)cc(CSc2ccc(C3=NCCN3)cc2)c1 [drawing 792] |  |  |  |  | inhibition at 12.5 µM ([3]; compound alone at 12.5 μM, read-out: Growth inhibition of E. coli at 12.5 μM): 10% |
| Cc1ccc(COc2ccc(C(=N)N)cc2)cc1COc1ccc(C(=N)N)cc1 [drawing 793] |  |  | 60 | 40 |  |
| Cc1cc(COc2ccc(C(=N)N)cc2F)cc(COc2ccc(C(=N)N)cc2F)c1 [drawing 794] | 30 |  |  |  |  |
| CO/N=C(\N)c1ccc(OCc2cc(C)cc(COc3ccc(/C(N)=N\OC)cc3)c2)cc1 [drawing 795] |  |  |  |  | MIC [3]: 100 µM |
| CCCCc1cc(OCc2ccc(C(=N)N)cc2)cc(OCc2ccc(C(=N)N)cc2)c1 [drawing 796] |  |  |  |  | inhibition at 10 µM ([3]; read-out: Growth inhibition of E. coli at 10 μM, compound alone at 10 μM): 20% |
